From ChEMBL document CHEMBL1128078, “Evaluation of substituted benzamides as P2 ligands for symmetry-based inhibitors of HIV protease” (Bioorg Med Chem Lett, 1995)
Each block holds one molecule with its values, some of them ahead of it.

What was measured:
[1] = target: Human immunodeficiency virus type 1 protease (Human immunodeficiency virus 1, UniProt Q72874); assay: Inhibitory activity against purified HIV protease
[2] = tested on: Human immunodeficiency virus 1; assay: Anti-HIV activity against MT-4 cells using a cytopathicity assay; type: functional, organism-based; conditions: Human immunodeficiency virus 1, MT4
MT4 [3] = assay: Cytotoxicity against MT-4 cells using a cytopathicity assay.; type: functional, Homo sapiens
MT4 [4] = assay: Anti-HIV activity was determined against MT-4 cells using a cytopathicity assay; NE means no effect; type: functional, cell-based, Homo sapiens

SMILES: COc1cc(C(=O)N[C@@H](Cc2ccccc2)C[C@H](O)[C@H](Cc2ccccc2)NC(=O)OCc2ccccc2)ccc1N
IC50 [1]: 10.5 nM
EC50 [2]: > 8000 nM
CCIC50 (MT4 [3]): 18 µM

SMILES: CC(C)(C)OC(=O)N[C@@H](Cc1ccccc1)C[C@H](O)[C@H](Cc1ccccc1)NC(=O)c1cccc(O)c1
IC50 [1]: 3.4 nM
EC50 [2]: 1600 nM
CCIC50 (MT4 [3]): 45 µM

SMILES: O=C(N[C@@H](Cc1ccccc1)C[C@H](O)[C@H](Cc1ccccc1)NC(=O)OCc1ccccc1)OCc1ccccc1
IC50 [1]: 5.6 nM
EC50 [2]: > 30000 nM
CCIC50 (MT4 [3]): >100 µM

SMILES: COc1cc(C(=O)N[C@@H](Cc2ccccc2)[C@@H](O)C[C@H](Cc2ccccc2)NC(=O)OC(C)(C)C)ccc1O
IC50 [1]: 3.3 nM
EC50 [2]: 2800 nM
CCIC50 (MT4 [3]): 43 µM

SMILES: CC(C)(C)OC(=O)N[C@@H](Cc1ccccc1)C[C@H](O)[C@H](Cc1ccccc1)NC(=O)c1ccc(O)c(O)c1
IC50 [1]: 4.1 nM
EC50 [2]: 2900 nM
CCIC50 (MT4 [3]): 21 µM

SMILES: COc1cc(C(=O)N[C@@H](Cc2ccccc2)[C@@H](O)C[C@H](Cc2ccccc2)NC(=O)OC(C)(C)C)ccc1N
IC50 [1]: 7.5 nM
EC50 [2]: 3200 nM
CCIC50 (MT4 [3]): 38 µM

SMILES: COc1cccc(C(=O)N[C@@H](Cc2ccccc2)[C@@H](O)C[C@H](Cc2ccccc2)NC(=O)OC(C)(C)C)c1
IC50 [1]: 23 nM
EC50 [2]: > 10000 nM
CCIC50 (MT4 [3]): 19 µM

SMILES: Cc1c(N)cccc1C(=O)N[C@@H](Cc1ccccc1)[C@@H](O)C[C@H](Cc1ccccc1)NC(=O)OC(C)(C)C
IC50 [1]: 2.6 nM
EC50 [2]: 1400 nM
CCIC50 (MT4 [3]): 56 µM

SMILES: CC(C)(C)OC(=O)N[C@@H](Cc1ccccc1)C[C@H](O)[C@H](Cc1ccccc1)NC(=O)c1ccc(O)c(N)c1
IC50 [1]: 7.6 nM
EC50 [2]: 5000 nM
CCIC50 (MT4 [3]): 57 µM

SMILES: Nc1ccc(C(=O)N[C@@H](Cc2ccccc2)C[C@H](O)[C@H](Cc2ccccc2)NC(=O)OCc2ccccc2)cc1O
IC50 [1]: 22 nM
EC50 [2]: > 10000 nM
CCIC50 (MT4 [3]): 18 µM

SMILES: CC(C)(C)OC(=O)N[C@@H](Cc1ccccc1)C[C@H](O)[C@H](Cc1ccccc1)NC(=O)c1ccc(N)c(N)c1
IC50 [1]: 9.6 nM
EC50 [2]: 7600 nM
CCIC50 (MT4 [3]): 81 µM

SMILES: O=C(N[C@@H](Cc1ccccc1)[C@@H](O)C[C@H](Cc1ccccc1)NC(=O)c1ccc(O)cc1Cl)OCc1ccccc1
IC50 [1]: 1.3 nM
EC50 [2]: 2200 nM
CCIC50 (MT4 [3]): 18 µM

SMILES: CC(C)(C)OC(=O)N[C@@H](Cc1ccccc1)C[C@H](O)[C@H](Cc1ccccc1)NC(=O)c1cc(O)cc(O)c1
IC50 [1]: 51 nM
EC50 [2]: 11000 nM
CCIC50 (MT4 [3]): 53 µM

SMILES: O=C(N[C@@H](Cc1ccccc1)[C@@H](O)C[C@H](Cc1ccccc1)NC(=O)c1ccccc1)OCc1ccccc1
IC50 [1]: 31 nM
EC50 [2]: > 10000 nM
CCIC50 (MT4 [3]): >100 µM

SMILES: CC(C)(C)OC(=O)N[C@@H](Cc1ccccc1)C[C@H](O)[C@H](Cc1ccccc1)NC(=O)c1ccc(N)c(O)c1
IC50 [1]: 11 nM
EC50 (MT4 [4]): Not Active
CCIC50 (MT4 [3]): 11 µM

SMILES: CC(C)(C)OC(=O)N[C@@H](Cc1ccccc1)C[C@H](O)[C@H](Cc1ccccc1)NC(=O)c1ccccc1O
IC50 [1]: 145 nM
EC50 [2]: > 75000 nM
CCIC50 (MT4 [3]): >100 µM

SMILES: CC(C)(C)OC(=O)N[C@@H](Cc1ccccc1)C[C@H](O)[C@H](Cc1ccccc1)NC(=O)c1ccccc1
IC50 [1]: 4.5 nM
EC50 [2]: 4300 nM
CCIC50 (MT4 [3]): 16 µM

SMILES: CC(C)(C)OC(=O)N[C@@H](Cc1ccccc1)C[C@H](O)[C@H](Cc1ccccc1)NC(=O)c1cc(O)ccc1Cl
IC50 [1]: 12 nM
EC50 [2]: 3700 nM
CCIC50 (MT4 [3]): 19 µM

SMILES: Nc1ccc(C(=O)N[C@@H](Cc2ccccc2)C[C@H](O)[C@H](Cc2ccccc2)NC(=O)OCc2ccccc2)c(Cl)c1
IC50 [1]: 6.1 nM
EC50 [2]: > 10000 nM
CCIC50 (MT4 [3]): 15 µM

SMILES: CC(C)(C)OC(=O)N[C@@H](Cc1ccccc1)C[C@H](O)[C@H](Cc1ccccc1)NC(=O)c1c(Cl)cccc1Cl
IC50 [1]: 67 nM
EC50 [2]: > 10000 nM
CCIC50 (MT4 [3]): 19 µM

SMILES: CC(C)(C)OC(=O)N[C@@H](Cc1ccccc1)C[C@H](O)[C@H](Cc1ccccc1)NC(=O)c1c(Cl)ccc(N)c1Cl
IC50 [1]: 31 nM

SMILES: CC(C)(C)OC(=O)N[C@@H](Cc1ccccc1)C[C@H](O)[C@H](Cc1ccccc1)NC(=O)c1cccc(N)c1Cl
IC50 [1]: 5.3 nM
EC50 [2]: 3100 nM
CCIC50 (MT4 [3]): 55 µM

SMILES: CC(C)(C)OC(=O)N[C@@H](Cc1ccccc1)C[C@H](O)[C@H](Cc1ccccc1)NC(=O)c1cc(N)cc(N)c1
IC50 [1]: 250 nM
EC50 (MT4 [4]): Not Active
CCIC50 (MT4 [3]): 92 µM

SMILES: CC(C)(C)OC(=O)N[C@@H](Cc1ccccc1)C[C@H](O)[C@H](Cc1ccccc1)NC(=O)c1ccc(N)cc1Cl
IC50 [1]: 3.4 nM
EC50 [2]: 2900 nM
CCIC50 (MT4 [3]): 48 µM

SMILES: CC(C)(C)OC(=O)N[C@@H](Cc1ccccc1)C[C@H](O)[C@H](Cc1ccccc1)NC(=O)c1ccc(O)cc1
IC50 [1]: 3.3 nM
EC50 [2]: 4800 nM
CCIC50 (MT4 [3]): 29 µM

SMILES: CC(C)(C)OC(=O)N[C@@H](Cc1ccccc1)C[C@H](O)[C@H](Cc1ccccc1)NC(=O)c1cc(N)ccc1Cl
IC50 [1]: 3.3 nM
EC50 [2]: 1800 nM
CCIC50 (MT4 [3]): >100 µM

SMILES: CC(C)(C)OC(=O)N[C@@H](Cc1ccccc1)C[C@H](O)[C@H](Cc1ccccc1)NC(=O)c1ccc(O)cc1Cl
IC50 [1]: 1.4 nM
EC50 [2]: 1800 nM
CCIC50 (MT4 [3]): 23 µM

SMILES: Cc1c(O)cccc1C(=O)N[C@@H](Cc1ccccc1)[C@@H](O)C[C@H](Cc1ccccc1)NC(=O)OC(C)(C)C
IC50 [1]: 1.6 nM
EC50 [2]: 1200 nM
CCIC50 (MT4 [3]): 47 µM

SMILES: CC(C)(C)OC(=O)N[C@@H](Cc1ccccc1)C[C@H](O)[C@H](Cc1ccccc1)NC(=O)OC(C)(C)C
IC50 [1]: 5.3 nM

EC50 [2]: 22 nM
SMILES: CC(C)c1nc(CN(C)C(=O)N[C@H](C(=O)N[C@@H](Cc2ccccc2)C[C@H](O)[C@H](Cc2ccccc2)NC(=O)OCc2cncs2)C(C)C)cs1 [RITONAVIR]
